From US20120020926A1, “COMPOSITION COMPRISING CAFTARIC ACID AND/OR DERIVATIVES THEREOF” (NESTEC S.A., priority 2009, published 2012)
Like-named read-outs stand apart in the source and are kept apart here.

What was measured:
liver metastasis = settings: subcutaneous and oral administrations; cited from earlier work
chlorogenate esterase = settings: Aspergillus japonicus, 1.85 mg/mL, pH 7
Experimental: A solution of chlorogenate esterase (0.8 mg, 24 U/g, from Kikkoman Japan) in 100 μl phosphate buffer (50 mM, pH 7.0) was added to a solution of caftaric acid (0.37 mg) in 100 μl phosphate buffer (50 mM, pH 7.0). The mixture was then incubated at 37° C. for 4 h. […] The supernatant was then analysed by HPLC. A reaction control was run in parallel under the same reaction conditions but without enzyme.
(§1) HPLC-DAD analysis of caftaric acid and hydrolysis products was performed on a Agilent 1100 system equipped with a Atlantis C18 reverse-phase column (4.6×100 mm, particle size 3 μm) and a diode array detector. The column was equilibrated with water containing 0.1% formic acid. After injection, a linear gradient to a final solvent composition of 55% water and 45% acetonitrile (containing 0.1% formic acid) was run within 12 min at a flow rate of 1 ml/min. Caftaric acid and caffeic acid were monitored by UV at 320 nm and were quantified using standard calibration curves.

[1] = tested on: spray-dried preparation of L. johnsonii; settings: Lactobacillus johnsonii, 6 mM, pH 7
Experimental: 10 mg of a spray-dried preparation of L. johnsonii (3.3 E09 cfu/g) were dissolved in 100 μl of phosphate buffer (50 mM, pH 7.0). To this solution, 100 μl of a caftaric acid solution (12 mM, phosphate buffer 50 mM, pH 7.0) were added. The mixture was then incubated at 37° C. and samples were withdrawn at different reaction times. After centrifugation (3000 g, 5 min) and filtration (0.45 μm pore size syringe filters, Millipore SLHA 025 BS) the samples were analysed by HPLC.
as §1

[2] = tested on: L. johnsonii (CNCM I-1225) crude cell extract; assay: Hydrolysis of caftaric acid with La1 extract (lysed cells); settings: after 2 h, 37° C.
Experimental: (§2) Cells of L. johnsonii (CNCM I-1225) were grown (7.0 E08 cfu/ml) and centrifuged (5000 g, 10 min), the pellets were resuspended in phosphate buffer (50 mM, pH 7.0) at a concentration of 0.61 g/ml. The cells were then lysed using the glass-beads method. 600 μl of cells preparation were put into a Mini-Beadbeater for 1 min of intense shaking, cooled in ice, and put another 1 min in the Mini-Beadbeater. The crude cell extract (100 μl) was then added to 100 μl of a solution of caftaric acid (12 mM, phosphate buffer 50 mM, pH 7.0) and the mixture was incubated at 37° C. Samples were withdrawn at different reaction times, centrifuged (3000 g, 5 min), filtered through 0.45 μm pore size syringe filters (Millipore SLHA 025 BS) and analysed by HPLC.
as §1

[3] = tested on: L. johnsonii (CNCM I-1225) fresh cells; assay: Hydrolysis of caftaric acid with L. johnsonii (La1) fresh cells; assay type: in vitro ADME, Lactobacillus johnsonii; settings: after 4 h reaction time, 37° C.
Experimental: Cells of L. johnsonii (CNCM I-1225) were grown (7.0 E08 cfu/ml) and centrifuged (5000 g, 10 min), the pellets were resuspended in phosphate buffer (50 mM, pH 7.0) at a concentration of 0.61 g/ml. To 100 μl of this cells solution, 100 μl of a solution of caftaric acid (12 mM) was added and the mixture was incubated at 37° C. Samples were withdrawn at different reaction times, centrifuged (3000 g, 5 min) and filtered through 0.45 μm pore size syringe filters (Millipore SLHA 025 BS) and analysed by HPLC.
A reaction control was run in parallel under the same reaction conditions but without bacteria.
as §1

[4] = tested on: Nrf2-ARE pathway (AREc32 cells); assay: Antioxidant Responsive Element (ARE) luciferase assay; assay type: cell-based, human; settings: for F/C (firefly luciferase activity): AREc reporter cell line, 24 h
[5] = tested on: L. johnsonii (CNCM I-1225) crude cell extract
Experimental: as §2, §1

| SMILES | Hydrolysis of caftaric acid into caffeic acid by chlorogenate esterase (amount by HPLC) (chlorogenate esterase; 0 min) | Hydrolysis of caftaric acid into caffeic acid by chlorogenate esterase (amount by HPLC) (chlorogenate esterase; 15 min) | Hydrolysis of caftaric acid into caffeic acid by chlorogenate esterase (amount by HPLC) (chlorogenate esterase; 30 min) | Hydrolysis of caftaric acid into caffeic acid by chlorogenate esterase (amount by HPLC) (chlorogenate esterase; 60 min) | Hydrolysis of caftaric acid into caffeic acid by chlorogenate esterase (amount by HPLC) (chlorogenate esterase; 120 min) | Hydrolysis of caftaric acid into caffeic acid by chlorogenate esterase (amount by HPLC) (chlorogenate esterase; 240 min) | hydrolysis of caftaric acid into caffeic acid by a spray-dried preparation of La1 (amount by HPLC) ([1]; 0 min) | hydrolysis of caftaric acid into caffeic acid by a spray-dried preparation of La1 (amount by HPLC) ([1]; 15 min) | hydrolysis of caftaric acid into caffeic acid by a spray-dried preparation of La1 (amount by HPLC) ([1]; 30 min) | hydrolysis of caftaric acid into caffeic acid by a spray-dried preparation of La1 (amount by HPLC) ([1]; 60 min) | hydrolysis of caftaric acid into caffeic acid by a spray-dried preparation of La1 (amount by HPLC) ([1]; 120 min) | hydrolysis of caftaric acid into caffeic acid by a spray-dried preparation of La1 (amount by HPLC) ([1]; 240 min) | further results |
| --- | --- | --- | --- | --- | --- | --- | --- | --- | --- | --- | --- | --- | --- |
| O=C(O)/C=C/c1ccc(O)c(O)c1 [Caffeic acid, Caffeic Acid] | 0% | 18% | 26% | 57% | 81% | 98% | 0 | 32 | 53 | 76 | 92 | 98 | liver metastasis (liver metastasis): significantly reduced liver metastasis |
| O=C(/C=C/c1ccc(O)c(O)c1)O[C@@H](C(=O)O)[C@@H](O)C(=O)O [Caftaric acid] | 99% | 82% | 64% | 43% | 19% | 2% | 99 | 68 | 47 | 24 | 8 | 2 | transformation of caftaric acid into caffeic acid [2]: all caftaric acid acid was transformed into caffeic acid; transformation of caftaric acid into caffeic acid [3]: all caftaric acid was transformed into caffeic acid; Nrf2-luciferase reporter activity ([4]; AREc32 cells, saturation inactivation response at higher doses): positive dose-dependent response; F/C (firefly luciferase activity) ([4]; 125 μg/ml): 2796; F/C (firefly luciferase activity) ([4]; 250 μg/ml): 5821; F/C (firefly luciferase activity) ([4]; 500 μg/ml): 5182; F/C (firefly luciferase activity) ([4]; 750 μg/ml): 25792; F/C (firefly luciferase activity) ([4]; 1000 μg/ml): 4777; F/C (firefly luciferase activity) ([4]; 1200 μg/ml): 29043; reaction rate of hydrolysis as compared to whole cells [5]: increase of the reaction rate |
